Article PMC6326728, “eIF2B activator prevents neurological defects caused by a chronic integrated stress response” (eLife, 2019)

Tests used:
Test in all cases: biochemical
Parameters in all cases: CEREP panel radioligand binding displacement, % inhibition of control specific binding by 10 uM 2BAct
H1 (h) = molecular target: T1, H1 (h) (Homo sapiens, UniProt P35367); conditions: Type=Antagonist radioligand; read-out: % inhibition of Control specific binding
T1 construct: gene HRH1
Description: (§1) Supplementary file elife-42940-supp1.xlsx: Supplementary file 1. (A) Binding of 2BAct at 10 μM to the CEREP panel of receptors/enzymes/ion channels. Compound binding was calculated as a % inhibition of the binding of a radioactively labeled ligand specific for each target. Results showing inhibition or stimulation higher than 50% are considered to represent significant effects of the test compound. (B) Pharmacokinetic data from 2BAct dosing in mice. (C) GO Biological Processes identified by enrichment analysis of RNA-seq data. (D) List of genes used for enrichment analysis of scRNA-seq data.

Estrogen ER alpha (h) = molecular target: T2, Estrogen ER alpha (h) (Homo sapiens, UniProt P03372); conditions: Type=Agonist radioligand; read-out: % inhibition of Control specific binding
T2 construct: gene ESR1
T2 sequence (P03372 whole entry): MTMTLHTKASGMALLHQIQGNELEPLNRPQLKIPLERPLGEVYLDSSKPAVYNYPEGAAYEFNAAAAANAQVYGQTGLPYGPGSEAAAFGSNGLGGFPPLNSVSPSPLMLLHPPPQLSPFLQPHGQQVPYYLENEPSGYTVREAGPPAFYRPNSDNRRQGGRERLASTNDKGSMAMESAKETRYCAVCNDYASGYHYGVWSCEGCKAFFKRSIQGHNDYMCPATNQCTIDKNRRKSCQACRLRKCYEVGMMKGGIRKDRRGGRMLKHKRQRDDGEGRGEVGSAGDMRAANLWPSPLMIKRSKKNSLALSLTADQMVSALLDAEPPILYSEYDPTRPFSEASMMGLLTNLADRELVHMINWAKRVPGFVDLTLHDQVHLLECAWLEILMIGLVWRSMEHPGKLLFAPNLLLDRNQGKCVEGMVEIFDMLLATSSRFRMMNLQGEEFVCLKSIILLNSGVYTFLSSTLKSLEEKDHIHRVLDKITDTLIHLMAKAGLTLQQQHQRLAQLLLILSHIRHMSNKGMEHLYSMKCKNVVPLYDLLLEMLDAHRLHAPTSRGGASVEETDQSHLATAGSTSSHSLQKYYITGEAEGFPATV
Description: as §1

CB1 (h) = molecular target: T3, CB1 (h) (Homo sapiens, UniProt P21554); conditions: Type=Agonist radioligand; read-out: % inhibition of Control specific binding
T3 construct: gene CNR1
Description: as §1

V1a (h) = molecular target: T4, V1a (h) (Homo sapiens, UniProt P37288); conditions: Type=Agonist radioligand; read-out: % inhibition of Control specific binding
T4 construct: gene AVPR1A
T4 sequence (P37288 whole entry): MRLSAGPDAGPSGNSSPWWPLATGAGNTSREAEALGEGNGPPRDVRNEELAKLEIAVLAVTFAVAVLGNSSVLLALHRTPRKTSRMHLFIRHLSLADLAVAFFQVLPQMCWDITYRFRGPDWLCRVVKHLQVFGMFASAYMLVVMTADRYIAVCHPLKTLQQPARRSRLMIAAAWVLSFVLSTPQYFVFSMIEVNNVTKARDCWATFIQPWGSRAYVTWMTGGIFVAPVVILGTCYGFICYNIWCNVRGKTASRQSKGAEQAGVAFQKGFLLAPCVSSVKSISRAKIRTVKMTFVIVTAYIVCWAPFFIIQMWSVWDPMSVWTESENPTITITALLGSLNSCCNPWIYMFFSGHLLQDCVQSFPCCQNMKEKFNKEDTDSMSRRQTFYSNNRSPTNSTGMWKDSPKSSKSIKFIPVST
Description: as §1

ET-B (h) = molecular target: T5, ET-B (h) (Homo sapiens, UniProt P24530); conditions: Type=Agonist radioligand; read-out: % inhibition of Control specific binding
T5 construct: gene EDNRB
Description: as §1

A2b (h) = molecular target: T6, A2b (h) (Homo sapiens, UniProt P29275); conditions: Type=Antagonist radioligand; read-out: % inhibition of Control specific binding
T6 construct: gene ADORA2B
Description: as §1

M3 (h) = molecular target: T7, M3 (h) (Homo sapiens, UniProt P20309); conditions: Type=Antagonist radioligand; read-out: % inhibition of Control specific binding
T7 construct: gene CHRM3
T7 sequence (P20309 whole entry): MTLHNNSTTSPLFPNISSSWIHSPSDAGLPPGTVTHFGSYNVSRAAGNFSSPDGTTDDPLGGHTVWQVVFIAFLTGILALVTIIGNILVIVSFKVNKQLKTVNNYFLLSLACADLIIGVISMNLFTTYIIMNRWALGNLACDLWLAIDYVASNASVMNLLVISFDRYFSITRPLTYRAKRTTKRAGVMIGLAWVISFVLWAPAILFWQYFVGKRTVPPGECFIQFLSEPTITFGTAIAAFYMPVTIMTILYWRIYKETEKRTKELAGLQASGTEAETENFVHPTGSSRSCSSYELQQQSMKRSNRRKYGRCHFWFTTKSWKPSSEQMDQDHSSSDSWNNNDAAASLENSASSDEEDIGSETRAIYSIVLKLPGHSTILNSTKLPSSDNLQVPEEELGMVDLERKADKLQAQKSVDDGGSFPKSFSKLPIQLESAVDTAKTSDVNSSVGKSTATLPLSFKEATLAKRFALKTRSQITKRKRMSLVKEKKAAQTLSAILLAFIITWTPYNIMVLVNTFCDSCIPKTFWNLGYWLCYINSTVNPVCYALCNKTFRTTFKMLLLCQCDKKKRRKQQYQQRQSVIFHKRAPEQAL
Description: as §1

GABA-A1 (h) (a1, b2, g2) = molecular target: T8, GABA-A1 (h) (a1, b2, g2) (Homo sapiens, UniProt P14867+P18507+P47870); conditions: Type=Agonist radioligand; read-out: % inhibition of Control specific binding
T8 construct: gene GABRA1; a1, b2, g2
T8 sequence (P14867 whole entry): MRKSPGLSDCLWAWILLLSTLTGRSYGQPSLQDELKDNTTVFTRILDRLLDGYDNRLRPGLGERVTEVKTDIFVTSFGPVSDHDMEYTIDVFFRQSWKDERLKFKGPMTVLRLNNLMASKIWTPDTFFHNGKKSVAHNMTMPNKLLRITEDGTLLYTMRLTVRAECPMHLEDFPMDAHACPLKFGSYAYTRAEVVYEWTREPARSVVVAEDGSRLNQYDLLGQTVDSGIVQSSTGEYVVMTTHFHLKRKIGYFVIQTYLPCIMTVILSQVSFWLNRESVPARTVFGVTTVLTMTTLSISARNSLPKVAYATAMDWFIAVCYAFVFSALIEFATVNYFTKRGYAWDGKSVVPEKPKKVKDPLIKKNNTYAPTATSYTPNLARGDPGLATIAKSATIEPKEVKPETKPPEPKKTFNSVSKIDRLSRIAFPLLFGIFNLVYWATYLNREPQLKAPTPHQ
T8 sequence (P18507 whole entry): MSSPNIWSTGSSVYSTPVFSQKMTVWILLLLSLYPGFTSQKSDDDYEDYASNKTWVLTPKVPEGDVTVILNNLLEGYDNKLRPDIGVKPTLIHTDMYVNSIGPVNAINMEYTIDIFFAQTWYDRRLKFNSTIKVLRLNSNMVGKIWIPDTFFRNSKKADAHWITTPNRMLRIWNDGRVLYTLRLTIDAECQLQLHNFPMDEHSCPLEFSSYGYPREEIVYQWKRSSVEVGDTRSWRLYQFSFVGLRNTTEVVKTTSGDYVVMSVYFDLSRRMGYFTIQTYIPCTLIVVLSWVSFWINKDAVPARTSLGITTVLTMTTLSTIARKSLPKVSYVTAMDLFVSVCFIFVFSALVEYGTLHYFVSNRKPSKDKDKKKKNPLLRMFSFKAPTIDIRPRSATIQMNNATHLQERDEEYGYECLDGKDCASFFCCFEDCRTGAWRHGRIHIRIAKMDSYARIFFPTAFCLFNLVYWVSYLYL
T8 sequence (P47870 whole entry): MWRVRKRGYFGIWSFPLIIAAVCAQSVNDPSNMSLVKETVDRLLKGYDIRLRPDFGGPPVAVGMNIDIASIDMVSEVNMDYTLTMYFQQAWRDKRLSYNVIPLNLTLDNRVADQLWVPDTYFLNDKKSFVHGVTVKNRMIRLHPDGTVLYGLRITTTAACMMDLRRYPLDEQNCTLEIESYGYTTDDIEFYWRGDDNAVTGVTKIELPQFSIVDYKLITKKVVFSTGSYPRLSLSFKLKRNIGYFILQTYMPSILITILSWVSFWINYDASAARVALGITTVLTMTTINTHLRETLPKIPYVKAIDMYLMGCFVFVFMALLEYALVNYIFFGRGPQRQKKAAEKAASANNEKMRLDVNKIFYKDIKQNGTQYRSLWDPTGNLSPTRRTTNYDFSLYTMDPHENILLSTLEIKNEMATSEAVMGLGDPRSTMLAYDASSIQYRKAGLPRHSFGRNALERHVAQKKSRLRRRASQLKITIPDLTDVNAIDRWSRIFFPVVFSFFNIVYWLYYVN
Description: as §1

5-HT2A (h) = molecular target: T9, 5-HT2A (h) (Homo sapiens, UniProt P28223); conditions: Type=Antagonist radioligand; read-out: % inhibition of Control specific binding
T9 construct: gene HTR2A
Description: as §1

5-HT1A (h) = molecular target: T10, 5-HT1A (h) (Homo sapiens, UniProt P08908); conditions: Type=Agonist radioligand; read-out: % inhibition of Control specific binding
T10 construct: gene HTR1A
T10 sequence (P08908 whole entry): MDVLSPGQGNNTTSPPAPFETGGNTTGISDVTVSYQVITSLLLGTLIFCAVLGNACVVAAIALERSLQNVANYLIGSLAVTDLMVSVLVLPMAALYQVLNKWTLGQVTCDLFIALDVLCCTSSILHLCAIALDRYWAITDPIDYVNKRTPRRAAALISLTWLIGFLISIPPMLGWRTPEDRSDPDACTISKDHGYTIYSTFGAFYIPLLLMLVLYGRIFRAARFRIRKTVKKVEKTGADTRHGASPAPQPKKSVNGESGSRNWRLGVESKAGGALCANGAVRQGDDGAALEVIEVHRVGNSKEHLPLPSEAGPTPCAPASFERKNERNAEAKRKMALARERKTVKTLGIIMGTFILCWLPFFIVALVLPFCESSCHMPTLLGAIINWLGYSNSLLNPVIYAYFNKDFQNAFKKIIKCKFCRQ
Description: as §1

H2 (h) = molecular target: T11, H2 (h) (Homo sapiens, UniProt P25021); conditions: Type=Antagonist radioligand; read-out: % inhibition of Control specific binding
T11 construct: gene HRH2
Description: as §1

NK1 (h) = molecular target: T12, NK1 (h) (Homo sapiens, UniProt P25103); conditions: Type=Agonist radioligand; read-out: % inhibition of Control specific binding
T12 construct: gene TACR1
Description: as §1

NK2 (h) = molecular target: T13, NK2 (h) (Homo sapiens, UniProt P21452); conditions: Type=Agonist radioligand; read-out: % inhibition of Control specific binding
T13 construct: gene TACR2
Description: as §1

AR (h) = AR (h) (Homo sapiens, UniProt P10275); conditions: Type=Agonist radioligand; read-out: % inhibition of Control specific binding
Description: as §1

CGRP (h) = molecular target: T14, CGRP (h) (Homo sapiens, UniProt Q16602); conditions: Type=Agonist radioligand; read-out: % inhibition of Control specific binding
T14 construct: gene CALCRL
Description: as §1

D1 (h) = molecular target: T15, D1 (h) (Homo sapiens, UniProt P21728); conditions: Type=Antagonist radioligand; read-out: % inhibition of Control specific binding
T15 construct: gene DRD1
Description: as §1

D2S (h) = molecular target: T16, D2S (h) (Homo sapiens, UniProt P14416); conditions: Type=Antagonist radioligand; read-out: % inhibition of Control specific binding
T16 construct: gene DRD2; short isoform (D2S)
Description: as §1

CCK1(CCKA) (h) = molecular target: T17, CCK1(CCKA) (h) (Homo sapiens, UniProt P32238); conditions: Type=Agonist radioligand; read-out: % inhibition of Control specific binding
T17 construct: gene CCKAR
Description: as §1

a2A (h) = molecular target: T18, a2A (h) (Homo sapiens, UniProt P08913); conditions: Type=Antagonist radioligand; read-out: % inhibition of Control specific binding
T18 construct: gene ADRA2A
T18 sequence (P08913 whole entry): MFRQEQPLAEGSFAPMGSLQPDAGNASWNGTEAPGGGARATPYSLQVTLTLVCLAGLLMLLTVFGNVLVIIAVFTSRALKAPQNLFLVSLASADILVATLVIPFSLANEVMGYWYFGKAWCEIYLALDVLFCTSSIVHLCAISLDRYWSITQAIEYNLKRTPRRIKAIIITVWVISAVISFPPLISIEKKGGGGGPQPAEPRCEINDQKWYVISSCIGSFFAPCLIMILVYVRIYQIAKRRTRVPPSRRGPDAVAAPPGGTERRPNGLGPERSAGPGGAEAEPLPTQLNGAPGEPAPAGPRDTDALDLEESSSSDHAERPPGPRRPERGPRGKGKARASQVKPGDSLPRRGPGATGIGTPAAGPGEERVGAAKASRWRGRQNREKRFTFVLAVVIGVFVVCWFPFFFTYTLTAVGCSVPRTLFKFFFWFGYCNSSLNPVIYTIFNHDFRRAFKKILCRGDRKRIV
Description: as §1

MT2 (ML1B) (h) = molecular target: T19, MT2 (ML1B) (h) (Homo sapiens, UniProt P49286); conditions: Type=Agonist radioligand; read-out: % inhibition of Control specific binding
T19 construct: gene MTNR1B
T19 sequence (P49286 whole entry): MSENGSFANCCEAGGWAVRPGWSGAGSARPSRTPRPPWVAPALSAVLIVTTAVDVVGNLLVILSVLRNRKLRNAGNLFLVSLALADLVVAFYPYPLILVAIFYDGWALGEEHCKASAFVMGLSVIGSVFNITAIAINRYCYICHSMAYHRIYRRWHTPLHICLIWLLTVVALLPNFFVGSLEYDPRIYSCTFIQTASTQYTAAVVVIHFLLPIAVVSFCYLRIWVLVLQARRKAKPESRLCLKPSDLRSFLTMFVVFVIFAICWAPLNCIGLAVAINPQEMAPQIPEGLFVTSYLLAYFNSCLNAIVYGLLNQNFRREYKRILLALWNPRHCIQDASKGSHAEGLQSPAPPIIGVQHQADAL
Description: as §1

AT2 (h) = molecular target: T20, AT2 (h) (Homo sapiens, UniProt P50052); conditions: Type=Agonist radioligand; read-out: % inhibition of Control specific binding
T20 construct: gene AGTR2
Description: as §1

T1 sequence (P35367 whole entry): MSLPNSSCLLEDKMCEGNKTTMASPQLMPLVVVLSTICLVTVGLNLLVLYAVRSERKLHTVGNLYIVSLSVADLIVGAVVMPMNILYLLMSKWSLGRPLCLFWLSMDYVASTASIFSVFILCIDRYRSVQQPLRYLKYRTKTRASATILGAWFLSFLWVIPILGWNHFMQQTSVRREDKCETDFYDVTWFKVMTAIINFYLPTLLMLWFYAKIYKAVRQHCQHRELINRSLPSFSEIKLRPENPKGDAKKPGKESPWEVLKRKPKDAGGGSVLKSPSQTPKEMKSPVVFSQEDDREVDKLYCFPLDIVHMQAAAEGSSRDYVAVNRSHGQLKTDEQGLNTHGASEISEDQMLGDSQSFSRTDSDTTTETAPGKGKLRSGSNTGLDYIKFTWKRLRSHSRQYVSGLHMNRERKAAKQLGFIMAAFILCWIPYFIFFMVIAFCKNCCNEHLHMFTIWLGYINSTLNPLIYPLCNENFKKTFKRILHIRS

`O=C(COc1ccc(Cl)c(F)c1)NC12CC(NC(=O)c3cnc(C(F)F)cn3)(C1)C2` [2BAct] was tested, and the inhibition at 10 µM (H1 (h)) was 0.2%, the inhibition at 10 µM (Estrogen ER alpha (h)) was -7.7% and the inhibition at 10 µM (CB1 (h)) was 8.3%. It also gave an inhibition at 10 µM (V1a (h)) of 6.4%, an inhibition at 10 µM (ET-B (h)) of 6% and an inhibition at 10 µM (A2b (h)) of 50.1%. The inhibition at 10 µM (M3 (h)) was -0.9%, the inhibition at 10 µM (GABA-A1 (h) (a1, b2, g2)) was -19.5% and the inhibition at 10 µM (5-HT2A (h)) was 10.8%. It also gave an inhibition at 10 µM (5-HT1A (h)) of 15.8%, an inhibition at 10 µM (H2 (h)) of -17.4% and an inhibition at 10 µM (NK1 (h)) of 29.1%. The inhibition at 10 µM (NK2 (h)) was 12%, the inhibition at 10 µM (AR (h)) was -0.2% and the inhibition at 10 µM (CGRP (h)) was -4.8%. For the same compound, the inhibition at 10 µM (D1 (h)) was 5.9%, the inhibition at 10 µM (D2S (h)) was 1.3% and the inhibition at 10 µM (CCK1(CCKA) (h)) was 5.2%. For the same compound, the inhibition at 10 µM (a2A (h)) was -5.5%, the inhibition at 10 µM (MT2 (ML1B) (h)) was -2% and the inhibition at 10 µM (AT2 (h)) was 0.2%.
